Results as given in patent EP4745117A1, “NOVEL INDENONE DERIVATIVE AND USE THEREOF” (Amyloid Solution Inc., priority 2023, dated 2025).

Key:
[1] = target: T1, Aβ1-42 (Homo sapiens, UniProt P05067); assay: Amyloid-beta disaggregation test by Thioflavin-T analysis; format: biochemical; conditions: for EC50: Aβ1-42 50 µM aggregated 24 hours, then compound 0 - 500 µM for 48 hours at 37 °C, concentration disaggregating 50 % of aggregates vs control, read-out: EC50 (µM) Aβ; for disaggregation effect for amyloid-beta protein aggregates: statement in words summarising the Thioflavin-T results
T1 construct: dissolving Aβ1-42 or Tau-RD3 (Tau repeat domain 3) monomers in DMSO
Summary of the method: (§1)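 Aβ1-42 (50 µM) or Tau-RD3 (35 µM) pre-aggregated 24 h at 37 °C, then incubated with compound (500 µM down to 0 µM, serial dilution) for 48 h at 37 °C. Read-out by Thioflavin-T (5 µM solution, glycine buffer pH 8.5) fluorescence, ex 450/em 485 nm. Values expressed relative to 72 h aggregated protein-only control (100%).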

[2] = tested on: amyloid-beta oligomers in HEK293 cells transfected with the APP E693Δ mutant plasmid; assay: Amyloid-beta oligomer change by dot blot (A11 antibody) in an amyloid-beta oligomer-overexpressing cell line; format: cell-based; conditions: compound 10 µM, 48 hours, dot blot of cell lysate, relative to control group (FIG. 1)
Excerpt: To observe the change in intracellular amyloid-beta oligomers, a plasmid with the APP E693Δ (Osaka mutation) mutant, which is associated with early-onset Alzheimer's disease and is known to induce intracellular amyloid-beta oligomer formation, was obtained from GenScript. This plasmid was transfected into HEK293 cells using a liposome-mediated method (Lipofectamine) to prepare a cell line that overexpresses intracellular amyloid-beta oligomers.
HEK293 cells transfected with the APP E693Δ mutant plasmid were incubated for 48 hours in a 37 °C, 5 % CO2 incubator, and then treated with the compounds prepared in 1.1, which were diluted to a concentration of 10 µM in the cell culture medium. The untransfected control group was treated with 0.1 % DMSO, the same as the compound-treated group.
The compound-treated cell lines were again incubated for 48 hours in a 37 °C, 5 % CO2 incubator and then used in the experiment.
After incubating the control and compound-treated cells from Example 2.2, a dot blot was performed using the cell lysate. A 3.5 µg sample was spotted onto a nitrocellulose membrane and air-dried, and then the membrane to which the sample was adhered was blocked with 5 % skim milk. After incubating with the amyloid oligomer antibody A11 to allow binding, the membrane was washed 4 times with TBST, and the secondary antibody was bound. The image signal was measured using a chemiluminescent substrate.
It was confirmed that the amount of amyloid-beta oligomers was reduced by each compound treatment compared to the control group.

[3] = target: Tau-RD3 (Tau repeat domain 3) (Homo sapiens, UniProt P10636); assay: Tau disaggregation test by Thioflavin-T analysis; format: biochemical; conditions: for EC50: Tau-RD3 35 µM aggregated 24 hours, then compound 0 - 500 µM for 48 hours at 37 °C, concentration disaggregating 50 % of aggregates vs control, read-out: EC50 (µM) Tau; for disaggregation effect for tau protein aggregates: statement in words summarising the Thioflavin-T results
Summary of the method: as §1

Sequence of Tau-RD3 (Tau repeat domain 3) (P10636 623-653 limits assumed): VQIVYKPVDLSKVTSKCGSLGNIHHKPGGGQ
T1 sequence (P05067 672-713 limits assumed): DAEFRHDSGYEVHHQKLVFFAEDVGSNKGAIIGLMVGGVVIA

Row | EC50 [1] [µM] | EC50 [3] [µM] | SMILES | disaggregation effect for amyloid-beta protein aggregates [1] | amyloid-beta oligomer reduction effect [2] | disaggregation effect for tau protein aggregates [3]
1 | 100 to 250 | > 250 | O=C1C(C2CCCCC2)=C(c2ccccc2)c2ccccc21 [Compound 11, 2-cyclohexyl-3-phenyl-1H-inden-1-one] |  |  | 
2 | > 250 | > 250 | CNC(=O)c1ccccc1C1=C(c2ccccc2C)c2ccccc2C1=O [Compound 99, N-methyl-2-(1-oxo-3-(o-tolyl)-1H-inden-2-yl)benzamide] |  |  | 
3 | > 250 | > 250 | O=C1C(c2ccccc2)=C(C2CCCCC2)c2ccccc21 [Compound 10, 3-cyclohexyl-2-phenyl-1H-inden-1-one] |  |  | 
4 | 20 to 100 | 20 to 100 | COc1ccc2c(c1)C(=O)C(c1cccnc1)=C2c1cnn(C)c1 [Compound 42-6, 6-methoxy-3-(1-methyl-1H-pyrazol-4-yl)-2-(pyridin-3-yl)-1H-inden-1-one] |  |  | 
5 | < 20 | > 250 | O=C1C(c2ccccc2)=C(c2ccccc2)c2ccc(N3CCOCC3)cc21 [Compound 12, 6-morpholino-2,3-diphenyl-1H-inden-1-one] |  |  | 
6 | > 250 | > 250 | Nc1ccc2c(c1)C(=O)C(c1ccccc1)=C2c1ccccc1 [Compound 68, 6-amino-2,3-diphenyl-1H-inden-1-one] |  |  | 
7 | < 20 | > 250 | O=C1C(c2ccccc2)=C(c2ccccc2)c2ccccc21 [Compound 1, 2,3-diphenylinden-1-one] |  |  | 
8 | < 20 | > 250 | Cc1ncsc1C1=C(c2cc[nH]n2)C(=O)c2cc(OCCCc3ccccc3)ccc21 [Compound 25, 3-(4-methylthiazol-5-yl)-6-(3-phenylpropoxy)-2-(1H-pyrazol-3-yl)-1H-inden-1-one] |  |  | 
9 | 20 to 100 | > 250 | Cc1ccccc1C1=C(c2ccccc2)C(=O)c2ccccc21 [Compound 5, 2-phenyl-3-(o-tolyl)-1H-inden-1-one] |  |  | 
10 | < 20 | < 20 | Cc1ncsc1C1=C(c2cccnc2)C(=O)c2cc(SCCCc3ccccc3)ccc21 [Compound 57, 3-(4-methylthiazol-5-yl)-6-((3-phenylpropyl)thio)-2-(pyridin-3-yl)-1H-inden-1-one] | remarkably excellent disaggregation effect |  | remarkably excellent disaggregation effect
11 | < 20 | > 250 | CN1CCN(c2cccc(C3=C(c4ccccc4)c4ccccc4C3=O)c2)CC1 [Compound 91, 2-(3-(4-methylpiperazin-1-yl)phenyl)-3-phenyl-1H-inden-1-one] |  |  | 
12 | < 20 | > 250 | Cc1ncsc1C1=C(c2cccnc2)C(=O)c2cc(NCCOc3ccccc3)ccc21 [Compound 55, 3-(4-methylthiazol-5-yl)-6-((2-phenoxyethyl)amino)-2-(pyridin-3-yl)-1H-inden-1-one] |  |  | 
13 | > 250 | < 20 | CC(=O)Oc1ccc2c(c1)C(=O)C(Br)=C2c1ccn(C)n1 [Compound 24, 2-bromo-3-(1-methyl-1H-pyrazol-3-yl)-1-oxo-1H-inden-6-yl acetate] |  |  | 
14 | 100 to 250 | 20 to 100 | COc1ccccc1C1=C(c2cccnc2)C(=O)c2cc(O)ccc21 [Compound 44-8, 6-hydroxy-3-(2-methoxyphenyl)-2-(pyridin-3-yl)-1H-inden-1-one] |  |  | 
15 | > 250 | 20 to 100 | COc1ccc2c(c1)C(=O)C(c1cnccc1C)=C2c1scnc1C [Compound 22, 6-methoxy-2-(4-methylpyridin-3-yl)-3-(4-methylthiazol-5-yl)-1H-inden-1-one] |  |  | 
16 | < 20 | > 250 | Cc1ncsc1C1=C(c2cccnc2)C(=O)c2cc(OCCCc3ccccc3)cc(O)c21 [Compound 48, 4-hydroxy-3-(4-methylthiazol-5-yl)-6-(3-phenylpropoxy)-2-(pyridin-3-yl)-1H-inden-1-one] |  |  | 
17 | < 20 | 20 to 100 | Cc1ncsc1C1=C(c2cccnc2)C(=O)c2cc(NC3CCN(C)CC3)ccc21 [Compound 51, 6-((1-methylpiperidin-4-yl)amino)-3-(4-methylthiazol-5-yl)-2-(pyridin-3-yl)-1H-inden-1-one] |  |  | 
18 | < 20 | < 20 | O=C1C(c2cncs2)=C(c2cncs2)c2ccc(OCCCc3ccccc3)cc21 [Compound 83, 6-(3-phenylpropoxy)-2,3-di(thiazol-5-yl)-1H-inden-1-one] | remarkably excellent disaggregation effect |  | remarkably excellent disaggregation effect

The remaining lines, values behind:

Row | SMILES | EC50 [1] [µM] | EC50 [3] [µM] | disaggregation effect for amyloid-beta protein aggregates [1] | amyloid-beta oligomer reduction effect [2] | disaggregation effect for tau protein aggregates [3]
19 | Cc1ncsc1C1=C(c2cccnc2)C(=O)c2cc(NC3CC3)ccc21 [Compound 63, 6-(cyclopropylamino)-3-(4-methylthiazol-5-yl)-2-(pyridin-3-yl)-1H-inden-1-one] | < 20 | < 20 | remarkably excellent disaggregation effect | reduction effect | remarkably excellent disaggregation effect
20 | Cc1ncsc1C1=C(c2ccc(N3CCN(C)CC3)cc2)C(=O)c2cc(N3CCN(C)CC3)ccc21 [Compound 75, 6-(4-methylpiperazin-1-yl)-2-(4-(4-methylpiperazin-1-yl)phenyl)-3-(4-methylthiazol-5-yl)-1H-inden-1-one] | < 20 | < 20 |  | reduction effect | 
21 | Cc1ncsc1C1=C(c2cccnc2)C(=O)c2cc(N(C)CCCc3ccccc3)ccc21 [Compound 65, 6-(methyl(3-phenylpropyl)amino)-3-(4-methylthiazol-5-yl)-2-(pyridin-3-yl)-1H-inden-1-one] |  | < 20 | remarkably excellent disaggregation effect | reduction effect | remarkably excellent disaggregation effect
22 | O=C1C(c2cccnc2)=C(c2ccccc2)c2ccccc21 [Compound 7, 3-phenyl-2-(pyridin-3-yl)-1H-inden-1-one] | < 20 | > 250 |  |  | 
23 | Cc1ncsc1C1=C(c2cccc(CN3CCN(C)CC3)c2)c2ccccc2C1=O [Compound 93, 3-(3-((4-methylpiperazin-1-yl)methyl)phenyl)-2-(4-methylthiazol-5-yl)-1H-inden-1-one] | 20 to 100 | 20 to 100 |  |  | 
24 | Cc1ncsc1C1=C(c2cccnc2)C(=O)c2cc(N)ccc21 [Compound 59, 6-amino-3-(4-methylthiazol-5-yl)-2-(pyridin-3-yl)-1H-inden-1-one] | 20 to 100 | 20 to 100 |  |  | 
25 | Cc1ncsc1C1=C(c2cccnc2)C(=O)c2cc(NC3CCCC3)ccc21 [Compound 49, 6-(cyclopentylamino)-3-(4-methylthiazol-5-yl)-2-(pyridin-3-yl)-1H-inden-1-one] | < 20 | > 250 |  |  | 
26 | O=C1C(c2ccccc2)=C(c2ccc(CN3CCOCC3)cc2)c2ccccc21 [Compound 16, 3-(4-(morpholinomethyl)phenyl)-2-phenyl-1H-inden-1-one] | 20 to 100 | > 250 |  |  | 
27 | Cc1ncsc1C1=C(c2ccccn2)C(=O)c2cc(O)ccc21 [Compound 40-4, 6-hydroxy-3-(4-methylthiazol-5-yl)-2-(pyridin-2-yl)-1H-inden-1-one] | > 250 | > 250 |  |  | 
28 | COc1ccc2c(c1)C(=O)C(c1ccccc1)=C2c1ccccc1 [Compound 2, 6-methoxy-2,3-diphenyl-1H-inden-1-one] | < 20 | > 250 |  |  | 
29 | Cc1ccccc1C1=C(c2c(C)cccc2C)c2ccc(O)cc2C1=O [Compound 84, 3-(2,6-dimethylphenyl)-6-hydroxy-2-(o-tolyl)-1H-inden-1-one] | < 20 | < 20 | remarkably excellent disaggregation effect |  | remarkably excellent disaggregation effect
30 | Cc1ncsc1C1=C(c2c[nH]nn2)C(=O)c2cc(OCCCc3ccccc3)ccc21 [Compound 31, 3-(4-methylthiazol-5-yl)-6-(3-phenylpropoxy)-2-(1H-1,2,3-triazol-4-yl)-1H-inden-1-one] | < 20 | < 20 |  |  | 
31 | CN1CCN(c2cccc(C3=C(c4ccccc4)C(=O)c4ccccc43)c2)CC1 [Compound 95, 3-(3-(4-methylpiperazin-1-yl)phenyl)-2-phenyl-1H-inden-1-one] | 20 to 100 | > 250 |  |  | 
